Experimental data as given in paper PMC8208785, “Therapeutic efficacy of novel memantine nitrate MN‐08 in animal models of Alzheimer’s disease” (Aging Cell, 2021).

How the values were obtained:
Assay type in all cases: in vivo
APP/PS1 mice = test: behavioral tests (SDA, NOR, MWM), prevention study in APP/PS1 mice; settings: 6 mg/kg gastric gavage, ages 2 to 8 months
Method: APP/PS1 transgenic mice were purchased from Jackson Laboratory and reproduced in the Shenzhen Center for Disease Control and Prevention (Shenzhen, China). Two‐month‐old APP/PS1 mice were divided into four groups: (1) APP/PS1 + Vehicle group; (2) APP/PS1 + MN‐08 (6 mg/kg) group; (3) APP/PS1 + Memantine (Mem, 5 mg/kg) group; (4) APP/PS1 + Donepezil (Done, 1.3 mg/kg, once daily) group; (5) Two‐month‐old C57BL/6J mice as a control group. The APP/PS1 mice were administered drugs twice a day (Done, once daily) by gastric gavage from ages 2 to 8 months for 6 months successively. Control and vehicle groups received equal volumes of saline.
(§1) The step-down avoidance (SDA) test was performed as previously described (Zhou et al., 2019). During the training phase, mice were singly placed on a metal floor with electrical stimulation (35 V) for 5 min. After 24 hours, the mouse was positioned on a wooden platform, while the metal floor at the bottom delivered an electrical shock (35 V) for another 5 min. The time for the animal to step down from the wooden platform were recorded as the step-down latency to evaluate retention memory.
(§2) Hippocampus-dependent spatial memory was determined by the Morris water maze (MWM) test according to the protocol described in a previous study (Jiao et al., 2015). The MWM test includes a platform training phase and a probe trial phase. An escape platform was placed in a fixed spatial location. During the training phase, each animal was placed at one of four different starting positions and tested four times a day with an interval of approximately 30 min. The animal in the water was immediately removed when it swam to the escape platform within 60 s. […] After the training phase, the probe trial was performed on the sixth day when the platform was removed. The animal was placed in the same starting position in the pool and allowed to move freely for 2 min. The animal swimming track was recorded and analyzed with a digital camera.
(§3) The novel object recognition test was performed to assess non-spatial working memory according to previously published protocols (Choi et al., 2011). Firstly, each animal was sequentially placed into a square box (50 × 50 × 50 cm, length × width × height) without any objects for 10 min per day for 2 continuous days to habituate to the environment. Then, two identical objects were placed parallel near one wall of the square box. Animals were placed singly in the box and allowed to explore the objects for 10 min. […] The time each animal took to examine the familiar object and novel object was recorded by digital camera. The discrimination index was calculated according to the following expression: (novel object (s) - familiar object (s))/ (novel object (s) + familiar object (s)). […]

3×Tg‐AD mice [1] = test: behavioral tests (SDA, NOR, MWM), treatment study in 3×Tg-AD mice; settings: 3, 6, and 12 mg/kg, vs vehicle
Method: (§4) Triple transgenic 3×Tg‐AD mice were acquired from Jackson Laboratory and fostered in the Shenzhen Center for Disease Control and Prevention (Shenzhen, China). Eight‐month‐old 3×Tg‐AD mice were categorized into six groups: (1) 3×Tg‐AD +Vehicle group; (2) 3×Tg‐AD +MN‐08 (3 mg/kg) group; (3) 3×Tg‐AD +MN‐08 (6 mg/kg) group; (4) 3×Tg‐AD +MN‐08 (12 mg/kg) group; (5) 3×Tg‐AD +Memantine (Mem, 5 mg/kg) group; (6) 3×Tg‐AD +Donepezil (Done, 1.3 mg/kg, once daily) group; (7) Eight‐month‐old B6129SF2/J mice as a control group. MN‐08 and memantine were given twice daily (Done, once daily) by gastric gavage for 4 months from 8 months of age.
as §1, §2, §3

3×Tg‐AD mice [2] = test: Aβ ELISA and Western blotting of APP-processing proteins in 3×Tg-AD mice
Method: as §4
To evaluate the concentration of soluble and insoluble Aβ in AD mice, the hippocampus and cortex were homogenized in the lysate, which was then centrifuged at 12000 g for 30 min at 4°C. Supernatant samples were collected as soluble Aβ. Sediment of the cortex and hippocampus was resuspended with formic acid, incubated on ice for 60 min and then centrifuged at 12,000 g for 30 min at 4°C. The supernatant and Tris/NaH2PO4 buffer were mixed as insoluble Aβ. The concentration of Aβ was analyzed by ELISA kit of human amyloid β (R&D Systems, Minneapolis, MN, USA) following the manufacturer’s instructions.
Western blotting analysis was performed as previously described with minor modifications (Huang, Li, & Nan, 2017). Proteins were extracted from hippocampal tissue and their concentrations determined by the BCA protein assay kit (Fdbio science, Hangzhou, China). The protein (20 μg) was separated on a 12% SDS-PAGE gel and then transferred to PVDF membranes. The membranes were blocked using 5 % nonfat dry milk for 2 h. The protein blots were incubated with the corresponding primary antibodies against p-Akt (#4060, 1:1000, Cell Signaling Technology), Akt (#4685, 1:1000, Cell Signaling Technology), BACE1 (#5606, 1:1000, Cell Signaling Technology), PS1 (#5643, 1:1000, Cell Signaling Technology), p-GSK3β (#5558, 1:1000, Cell Signaling Technology), GSK3β (#12456, 1:1000, Cell Signaling Technology), Bcl-2 (#3498, 1:1000, Cell Signaling Technology), Bax (#5023, 1:1000, Cell Signaling Technology), Cleaved caspase-3 (#9661, 1:1000, Cell Signaling Technology), Caspase-3 (#9662, 1:1000, Cell Signaling Technology), ADAM10 (#14194, 1:1000, Cell Signaling Technology), APP (#ab241592, 1:1000, Abcam), sAPPα (#ab126723, 1:1000, Abcam), NEP (#ab216341, 1:1000, Abcam), Synapsin I (#ab64581, 1:1000, Abcam), Synapsin II (#ab76494, 1:1000, Abcam), NR2A (#ab124913, 1:2000, Abcam), PSD95 (#ab18258, 1:1000, Abcam), Synaptophysin (#ab32127, 1:1000, Abcam), IDE (#ab133561, 1:1000, Abcam), Drebin (#ab178408, 1:1000, Abcam) and Tau-5 (#ab80579, 1:2000, Abcam) overnight at 4°C. After washing 3 times, the membranes were incubated with the respective HRP-conjugated secondary antibody. ECL Western blotting Detection Reagents (Fdbio science, Hangzhou, China) were used to perform Chemiluminescence detection. Quantitative analysis of protein bands was conducted by the Carestream system (Carestream Health, Inc, USA).

[3] = MN‐08 6 mg/kg, hippocampi, Western blot

CCC12CC3CC(N)(C1)CC(CO[N+](=O)[O-])(C3)C2 (stereo not shown) [MN‐08]
escape latency in Morris water maze test (APP/PS1 mice): markedly shortened
number of crossings in Morris water maze test (APP/PS1 mice): increased
discrimination index in novel object recognition (NOR) test (APP/PS1 mice; vs vehicle): significantly increased
latency in step‐down avoidance (SDA) test (APP/PS1 mice; vs vehicle): significantly increased
step‐down latency (3×Tg‐AD mice [1]; 4 months from 8 months of age): significant increase
discrimination index (NOR) (3×Tg‐AD mice [1]; 4 months): significant increase
escape latency time (MWM) (3×Tg‐AD mice [1]; 4 months): significant reduction
number of crossings (MWM) (3×Tg‐AD mice [1]; 4 months): significant increase
Aβ accumulation (ELISA) (3×Tg‐AD mice [2]; MN‐08 6 mg/kg, hippocampal and cortical areas): significant reduction
expression of total APP (3×Tg‐AD mice [2]; [3]): significantly decreased
expression of α‐secretase (ADAM10) and neprilysin (NEP) (3×Tg‐AD mice [2]; [3]): enhanced
levels of sAPPα (3×Tg‐AD mice [2]; [3]): increasing
expression of IDE, PS1, or BACE1 (3×Tg‐AD mice [2]; hippocampi, Western blot): no effect
